Test results: ChEMBL document CHEMBL2331330, “Substituted piperidinyl glycinyl 2-cyano-4,5-methano pyrrolidines as potent and stable dipeptidyl peptidase IV inhibitors” (Bioorg Med Chem Lett, 2013)

Key:
Dipeptidyl peptidase 4 = Dipeptidyl peptidase 4 (Homo sapiens, UniProt P27487); experiment: Inhibition of human DPP4 using gly-pro-para-nitroanilide as substrate
[1] = Degradation half life of the compound at 30 mM at pH 7.2; assay type: physicochemical; settings: buffer
[2] = Degradation half life of the compound at 50 mM at pH 7.2; assay type: physicochemical; settings: buffer
[3] = Degradation half life of the compound at 10 mM at pH 7.2; assay type: physicochemical; settings: buffer

Chain of Dipeptidyl peptidase 4 (P27487 whole entry): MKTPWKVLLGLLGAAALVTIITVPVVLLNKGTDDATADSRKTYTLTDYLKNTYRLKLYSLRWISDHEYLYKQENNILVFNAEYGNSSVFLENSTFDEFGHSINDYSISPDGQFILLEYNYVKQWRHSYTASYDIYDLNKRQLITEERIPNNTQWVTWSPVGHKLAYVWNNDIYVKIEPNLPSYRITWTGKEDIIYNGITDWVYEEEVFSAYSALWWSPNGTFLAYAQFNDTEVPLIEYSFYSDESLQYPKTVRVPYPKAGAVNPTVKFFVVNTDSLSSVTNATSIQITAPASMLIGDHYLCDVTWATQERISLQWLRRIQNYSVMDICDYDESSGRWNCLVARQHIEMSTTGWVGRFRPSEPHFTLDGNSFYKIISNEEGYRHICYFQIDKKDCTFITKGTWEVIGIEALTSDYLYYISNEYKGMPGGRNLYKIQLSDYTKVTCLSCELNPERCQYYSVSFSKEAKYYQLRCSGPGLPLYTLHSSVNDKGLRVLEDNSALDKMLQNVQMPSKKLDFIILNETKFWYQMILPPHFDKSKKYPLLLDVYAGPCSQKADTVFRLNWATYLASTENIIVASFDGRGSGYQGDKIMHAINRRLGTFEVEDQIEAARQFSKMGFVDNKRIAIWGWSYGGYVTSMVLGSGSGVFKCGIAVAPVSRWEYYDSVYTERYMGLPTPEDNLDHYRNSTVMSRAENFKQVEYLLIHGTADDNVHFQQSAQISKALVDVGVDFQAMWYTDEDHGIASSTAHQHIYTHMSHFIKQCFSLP

Ki (Dipeptidyl peptidase 4)	half-life at 30000 µM [1]	half-life at 50000 µM [2]	half-life at 10000 µM [3]	SMILES
13 nM				N#C[C@@H]1C[C@@H]2C[C@@H]2N1C(=O)[C@@H](N)C1CCN(S(=O)(=O)c2cccc3ccccc23)CC1
	38.4 h	38.4 h	48 h	CC(C)(C)CC(=O)N1CCC([C@H](N)C(=O)N2[C@H](C#N)C[C@@H]3C[C@@H]32)CC1
18 nM				N#C[C@@H]1C[C@@H]2C[C@@H]2N1C(=O)[C@@H](N)C1CCN(C(=O)Cc2ccccc2)CC1
	245 h	192 h	473 h	CCC1([C@H](N)C(=O)N2[C@H](C#N)C[C@@H]3C[C@@H]32)CCN(C(=O)CC(C)(C)C)CC1
